Measured values reported in article PMC8511024, “In silico and multi-spectroscopic analyses on the interaction of 5-amino-8-hydroxyquinoline and bovine serum albumin as a potential anticancer agent” (Scientific Reports, 2021).

Columns and labels:
[1] = target: T1, bovine serum albumin (BSA) (Bos taurus, UniProt P02769); experiment: Fluorescence quenching of BSA (Stern–Volmer, Hill and Van't Hoff analyses); format: binding; settings: for Stern–Volmer constant Ksv: BSA 4 µM, 5A8HQ 0–170 µM; for Quenching rate constant kq: lifetime of 1 × 10^−8 s assumed
T1 construct: bovine serum albumin (BSA), a representative of serum protein; purchased Sigma-Aldrich Co. LLC
Text: Quenching of intrinsic protein fluorescence can be triggered by either static or dynamic process. In some circumstances, both processes can concurrently provoke fluorescence quenching known as a combined quenching mechanism. Static and dynamic quenching processes obey a linear model of the Stern–Volmer equation (Eq. 1), which can be approximately differentiated by scrutinizing the Stern–Volmer constant ( Ksv ) at different temperatures. Positive relationship of Ksv with temperature indicates dynamic quenching process, while negative association infers static process. Dynamic quenching occurs via collisional encountering among protein and ligand. Increasing temperature enlarges ligand motion to hit protein and quench its fluorescence at the excited state, resulting in increasing Ksv . Static quenching is contrary to the dynamic one. It is arisen by the complexation of protein and ligand, in which rising temperature tends to disfavor binding event and lessen Ksv value. Combined quenching process influences both ground-state and excited state of protein fluorescence, which usually deviates the linearity of classical Stern–Volmer plot to downward or upward curvature[42].1 F0/F=1+KsvQ=1+kqτ0Q F0 and F are the steady-state fluorescence intensities of fluorophore (BSA) in the absence and the presence of quencher (5A8HQ), respectively. Q refers to the molar concentration of quencher. Ksv is Stern–Volmer constant. kq and τ0 are biomolecular quenching rate constant and fluorescence lifetime of the fluorophore without quencher, respectively.
Fluorescence quenching and thermodynamic analyses were performed at three different temperatures including 310, 300, and 290 K to imitate physiological, ambient, and hypothermic conditions, respectively. The 5A8HQ quenched fluorescence emission of BSA in a concentration dependent manner and almost reached saturation at 5A8HQ concentration above 130 µM (Fig. 3A). The Stern–Volmer plots behaved in a positive linear trend, indicating a single process of BSA fluorescence quenching by 5A8HQ (Fig. 3B).
In addition, quenching process could be roughly verified by determining the quenching rate constant of the interaction (Eq. (1)), in which the quenching rate constant at 2 × 10^10 M^−1 s^−1 is usually employed as a maximum cutoff for diffusion collision quenching of various quenchers. The fluorescence lifetime of excited state can be measured using a lifetime spectrofluorometer. However, in case of inaccessible to such instrument like this study, a lifetime of 1 × 10^−8 s is generally assumed for the calculation of quenching rate constant. Accordingly, the quenching rate constant of BSA‒5A8HQ interaction at each temperature was approximated to be 10^12 M^−1 s^−1 (Table 2), which was 100 times higher than that of the typical collisional quenching process (2 × 10^10 M^−1 s^−1). […] Thereby, the binding constants of complexation were elucidated using Hill’s plot.
Various non-covalent interactions play an important role in the binding of ligand to protein including hydrogen bonding, van der Waals force, electrostatic, and hydrophobic interactions. Therefore, complex formation between BSA and 5A8HQ was further explored to determine principal interaction forces and binding affinity. Nonlinear Hill’s equation (Eq. (2)) was applied on the fluorescence dataset of BSA–5A8HQ complex to obtain binding constant ( KA ) and Hill coefficient constant ( n ), which fundamentally infer affinity and cooperativity of the binding, respectively (Fig. 4A).
2 F0-F/F0=KA[Q]^n/1+KA[Q]^n F0 , F , and Q stand for the same annotations as the aforementioned in Eq. (1). Hill’s equation can be transformed to linear form as an expression of Eq. (3), which is often applied in many studies.3 logF0-F/F=logKA+nlogQ KA is similar to KSV in terms of binding constant, but in different aspects of interaction behavior. KA implies a degree of affinity at static process, while KSV rather reflects dynamic behavior among protein and ligand[16]. […]

[2] = target: T1, bovine serum albumin (BSA); experiment: Site probe competitive (site marker displacement) analysis; format: binding; settings: 310 K; for Kd: Binding constant KA, BSA 4 µM
Text: Serum albumin can bind and transport various molecules since its structure assembles many binding pockets. Site I and site II are well-defined binding pockets located in hydrophobic regions of subdomains IIA and IIIA, respectively, which primarily bind aromatic and heterocyclic compounds. Site III is found on the hydrophilic region of subdomain IB to serve as a binding pocket for numerous compounds e.g., bilirubin, hemin, and sulfonamide derivatives. In addition, seven binding sites for fatty acids are discovered on subdomains IB, IIIA, and IIIB, and at the interface between subdomains. Herein, site-probe displacement study was employed to determine the preferred binding site on BSA of 5A8HQ using warfarin, ibuprofen, and digitoxin as competitive probes for sites I, II, and III, respectively. Binding constant of 5A8HQ to BSA was determined during equilibration with each site marker (Table 4).
BSA (4 µM) was equilibrated with various concentrations of 5A8HQ (0, 5, 10, 30, 50, 70, 90, 110, 130, 150, and 170 µM) for 10 min at the different temperatures (290, 300, and 310 K). Later, fluorescence spectra in a range of 285–450 nm were measured with 280 nm excitation using a temperature-controlled QuantaMaster™ 40 spectrofluorometer (Photon Technology International, Inc., Ontario, Canada). Site marker displacement analyses were achieved as the abovementioned, but an equimolar concentration of […] was added to BSA prior challenging with various 5A8HQ concentrations at physiological temperature (310 K). Inner filter effect (IFE) becaused by the excitation and emission beam attenuations by sample might produce nonlinearity artifact on the measured fluorescent signal, so IFE was routinely eradicated by the following equation[55].9 Fcor=Fobs×e^(A^ex-A^em)/2 where Fobs and Fcor are the measured and corrected fluorescence intensities, respectively. A^ex and A^em are the absorbance values at excitation and emission wavelengths being measured. The IFE corrected fluorescence signals were served for estimations of all pertinent parameters, such as quenching constant, binding constant, and thermodynamics parameters, if not otherwise stated.

[3] = target: T1, bovine serum albumin (BSA); experiment: Fluorescence resonance energy transfer (FRET) between BSA and 5A8HQ; format: binding
Text: Besides microenvironmental changes around its fluorophore, quenching of BSA fluorescence may also be provoked by fluorescence resonance energy transfer (FRET) process, in which the excited Trp and/or Tyr transfer their energy to the quencher (5A8HQ) via dipole–dipole interaction. However, the FRET phenomenon is strictly dependent on the degree of overlapping between emission spectrum of fluorophore and absorption spectrum of quencher. Also, fluorophore and quencher must be in proximity (2–8 nm) to each other and their transition dipoles must align in parallel orientation. FRET is a useful method to study molecular distance among molecules that can provide guidance on whether ligand binds with protein at proximity to the Trp fluorophore. The distance ( r ) between quencher and fluorophore can be calculated by Eq. (6).6 E=1-F/F0=R06/[…] E stands for the efficiency of fluorescence resonance energy transfer. F0 and F are fluorescence intensities of BSA in the absence and presence of 5A8HQ, respectively. R0 is the Förster distance, where half of the excitation energy is transferred to the acceptor. R0 can be obtained by Eqs. (7) and (8) as follows:7 R0=0.211k^2∅DJ/n^4^1/6 8 J=∫0∞Fλελλ^4dλ/∫0∞Fλdλ where k^2 is the orientation factor of the dipoles, which can range between 0 and 4. ∅D and n denote the fluorescence quantum yield of donor without quencher and the refractive index of the medium, respectively. J is an overlapping between the donor fluorescence spectrum and the quencher absorption spectrum. Fλ and ελ mean fluorescence intensity of the donor and molar absorption coefficient of the acceptor at the λ wavelength.
R0 was determined on the assumption that ∅D and n were 0.15 and 1.336, respectively. However, Förster distance depends greatly on orientation between donor’s and acceptor’s dipoles. k^2 value of 0.667 is generally assumed for dynamic dipole orientation, where dipoles are randomly oriented because of their rotational diffusion. […] Based on these two assumptions of dipole orientation, R0 were calculated to be 2.37 and 2.50 nm, which subsequently yielded the Trp to 5A8HQ distances ( r ) at 3.01 and 3.18 nm for static and dynamic dipole orientations, respectively.

[4] = target: T1, bovine serum albumin (BSA); experiment: Circular dichroism spectroscopy of BSA secondary structure; settings: BSA 4 µM, 310 K, without 5A8HQ 66.17%
Text: Structural alteration of the BSA when interacting with 5A8HQ was further elucidated by a CD spectroscopy, which is a useful technique for analyzing the secondary structure of macromolecules. BSA structure is dominantly composed of α-helix (~ 67%), represented by two prominent negative bands at 208 (π–π* transition) and 222 (n–π* transition) nm, and a positive band at 192 nm (π–π* transition)[54]. […] This finding is in well agreement with other observations, especially thermodynamic parameters, molecular docking, and molecular dynamics simulations, which implied that BSA tends to transform its native conformation for ground-state complexation with 5A8HQ. Hydrogen bonding and electrostatic networks of the complex might reallocate hydrogen bonding of α-helix structure as indicated by a slight decrease in CD spectral bands.
CD measurement was performed to determine a secondary conformational alteration of BSA under 5A8HQ exposure using a Jasco J-815 spectropolarimeter (JASCO International Co. Ltd., Tokyo, Japan). BSA (4 µM) was incubated with 5A8HQ (5 and 50 µM) in a 1 mm path length cuvette at 310 K under constantly flushed with nitrogen. The spectra were recorded in a range of 200–260 nm at an interval of 1 nm with a 60 nm/min scanning rate.

[5] = read-out: Antioxidant activity IC50; cited from earlier work
[6] = tested on: BSA; parameters: method as in PMID 30865872; settings: cited from earlier work

T1 sequence (P02769 25-607): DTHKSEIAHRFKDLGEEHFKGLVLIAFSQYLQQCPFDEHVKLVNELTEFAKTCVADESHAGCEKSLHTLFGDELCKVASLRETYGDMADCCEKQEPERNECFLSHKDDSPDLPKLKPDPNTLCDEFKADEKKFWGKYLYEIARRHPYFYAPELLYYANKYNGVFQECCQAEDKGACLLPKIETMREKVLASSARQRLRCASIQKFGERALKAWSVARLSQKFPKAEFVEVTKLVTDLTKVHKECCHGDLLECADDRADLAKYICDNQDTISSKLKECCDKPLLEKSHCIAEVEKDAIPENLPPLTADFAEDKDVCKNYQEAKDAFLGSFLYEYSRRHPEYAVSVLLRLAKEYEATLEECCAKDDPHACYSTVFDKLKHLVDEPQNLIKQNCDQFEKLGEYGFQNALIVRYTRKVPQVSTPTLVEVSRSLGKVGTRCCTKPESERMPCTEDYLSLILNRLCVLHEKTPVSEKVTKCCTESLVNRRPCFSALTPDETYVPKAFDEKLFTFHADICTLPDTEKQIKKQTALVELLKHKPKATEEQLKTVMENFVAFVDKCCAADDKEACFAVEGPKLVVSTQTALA

## Nc1ccc(O)c2ncccc12 [5A8HQ, 5-Amino-8-hydroxyquinoline]
[1]; 290 K
  Hill coefficient constant n: 1 ± 0
  Stern–Volmer constant Ksv: 2.773 ± 0.071 × 10^4 M^−1
  Quenching rate constant kq: 2.773 ± 0.071 × 10^12 (M^−1 s^−1)
[1]; 300 K
  Hill coefficient constant n: 1 ± 0
  Stern–Volmer constant Ksv: 1.303 ± 0.043 × 10^4 M^−1
  Quenching rate constant kq: 1.303 ± 0.043 × 10^12 (M^−1 s^−1)
[1]; 310 K
  Hill coefficient constant n: 1 ± 0
  Stern–Volmer constant Ksv: 1.173 ± 0.032 × 10^4 M^−1
  Quenching rate constant kq: 1.173 ± 0.032 × 10^12 (M^−1 s^−1)
[1]; Binding constant KA, 290 K, Hill's equation
  Kd: 40 µM
[1]; Binding constant KA, 300 K, Hill's equation
  Kd: 58.6 µM
[1]; Binding constant KA, 310 K, Hill's equation
  Kd: 83.7 µM
[1]; Binding constant of BSA‒5A8HQ interaction (order of magnitude), 290–310 K
  Kd: 100 µM
[1]; at each temperature, lifetime 1 × 10^−8 s assumed
  Quenching rate constant (order of magnitude): ~10^12 M^−1 s^−1
[2]; with digitoxin (site III marker) 4 µM
  Kd: 47.6 µM
[2]; with ibuprofen (site II marker) 4 µM
  Kd: 47.8 µM
[2]; with warfarin (site I marker) 4 µM
  Kd: 47.1 µM
[2]; without site marker
  Kd: 83.7 µM
  Number of binding site n: 1 ± 0
[2]; with digitoxin 4 µM
  Number of binding site n: 1 ± 0
[2]; with ibuprofen 4 µM
  Number of binding site n: 1 ± 0
[2]; with warfarin 4 µM
  Number of binding site n: 1 ± 0
[3]; BSA 4 µM fluorescence, 5A8HQ 5 µM absorption
  Integral spectral overlap J: 9.55 × 10^13 M^−1 cm^−1 nm^4
[3]; dynamic dipole orientation
  Trp to 5A8HQ distance r: 3.18 nm
[3]; dynamic dipole orientation, k^2 0.667
  Förster distance R0: 2.50 nm
[3]; static dipole orientation
  Trp to 5A8HQ distance r: 3.01 nm
[3]; static dipole orientation, k^2 0.475
  Förster distance R0: 2.37 nm
[4]; 5A8HQ 5 µM
  α-helix content of BSA: 64.96%
[4]; 5A8HQ 50 µM
  α-helix content of BSA: 63.65%
[5]
  IC50: 8.71 µM

## Cc1c(C)c2c(c(C)c1O)CC[C@@](C)(CCC[C@H](C)CCC[C@H](C)CCCC(C)C)O2 [α-tocopherol, reference compound]
[5]
  IC50: 13.5 µM

## Oc1c(I)cc(Cl)c2cccnc12 [clioquinol, 5-chloro-7-iodo-8-hydroxyquinoline]
[6]
  Binding constant KA: 10^8 M^−1
